We go through 19 compounds from PMC10384982, “Investigation of Novel Benzoxazole-Oxadiazole Derivatives as Effective Anti-Alzheimer’s Agents: In Vitro and In Silico Approaches” (Pharmaceuticals, 2023).

The target in the first test is T1, butyrylcholinesterase (BuChE) (Equus caballus, UniProt P81908).
T1 construct: butyrylcholinesterase (E.C. 3.1.1.8) from equine serum; purchased Sigma–Aldrich (Steinheim, Germany); host or cells: equine serum
T1 sequence (P81908 whole entry): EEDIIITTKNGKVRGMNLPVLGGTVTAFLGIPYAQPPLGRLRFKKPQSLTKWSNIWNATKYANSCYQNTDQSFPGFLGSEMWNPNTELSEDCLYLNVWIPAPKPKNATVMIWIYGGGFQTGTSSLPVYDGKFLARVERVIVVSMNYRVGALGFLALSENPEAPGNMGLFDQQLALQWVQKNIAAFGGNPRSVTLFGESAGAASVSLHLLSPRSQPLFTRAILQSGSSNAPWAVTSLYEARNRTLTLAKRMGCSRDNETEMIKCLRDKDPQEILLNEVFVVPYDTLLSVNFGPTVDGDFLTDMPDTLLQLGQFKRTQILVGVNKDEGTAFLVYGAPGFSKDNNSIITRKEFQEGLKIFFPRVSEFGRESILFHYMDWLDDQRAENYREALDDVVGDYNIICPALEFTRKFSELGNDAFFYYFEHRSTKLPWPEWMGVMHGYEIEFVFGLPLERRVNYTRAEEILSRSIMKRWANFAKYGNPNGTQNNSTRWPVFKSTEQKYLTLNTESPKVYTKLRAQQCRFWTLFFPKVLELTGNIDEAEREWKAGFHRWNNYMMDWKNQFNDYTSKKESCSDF
The experiment in a line: biochemical.
Settings: not given
As to the method: Acetylcholinesterase (E.C.3.1.1.7) (Type VI-S from electric eel and recombinant human enzyme) and butyrylcholinesterase (E.C. 3.1.1.8) from equine serum were purchased from Sigma–Aldrich (Steinheim, Germany). All of the materials used in the synthesis were purchased from Merck or Sigma–Aldrich (St. Louis, MO, USA) (Darmstadt, Germany). The ^1H NMR and ^13C NMR spectra in DMSO-d6 were recorded using a Bruker operating at 600 and 150 MHz digital FT-NMR spectrometer (Billerica, MA, USA, Bioscience, Bruker). The NMR spectra’s splitting patterns were recognized and categorized as doublet (d), singlet (s), double doublet (dd), multiplet (m) and triplet (t). In hertz, the coupling constants (J) are given (Hz). Mass spectra were captured on a Shimadzu LCMS-IT-TOF system (Kyoto, Japan) using the electrospray ionization (ESI) method. Using thin-layer chromatography and silica gel 60 F254 to test the purity of synthesized compounds (Darmstadt, Germany, Merck, KGaA).
The inhibition of AChE and BChE was determined using a method described earlier. Briefly, the stock solutions (1 mg/mL) of test analogues were prepared using DMSO. The working solutions (1–100 µg/mL) were prepared using serial dilutions (a serial dilution means a series of diluted solutions, e.g., 0.1 mg/mL, 0.2 mg/mL and so on; the solutions contained 5% DMSO and 95% water). The various concentrations of test compounds (10 µL) were pre-incubated with sodium phosphate buffer (0.1 M; pH 8.0; 150 µL) and AChE (0.1 U/mL; 20 µL) for 15 min at 25 °C. The reaction was initiated via the addition of DTNB (1 mM; 10 µL) and […] (1 mM; 10 µL). The mixture of reaction was mixed using a cyclomixer and incubated for 10 min at 25 °C. The absorbance was measured using a microplate reader at a 410 nm wavelength against the blank reading containing 10 µL DMSO instead of the test compound (the solution contained 5% DMSO and 95% water).
One may read the IC50 as the concentration needed to halve the response being measured. `O=[N+]([O-])c1ccc(-c2nnc(/N=C(/CSc3nc4ccccc4o3)c3cccc([N+](=O)[O-])c3)o2)cc1` [Compound 1, (E)-2-(Benzo[d]oxazol-2-ylthio)-1-(3-nitrophenyl)-N-(5-(4-nitrophenyl)-1,3,4-oxadiazol-2-yl)ethan-1-imine] gave an IC50 of 8.9 ± 1.8 µM.

Take `O=[N+]([O-])c1cccc(/C(CSc2nc3ccccc3o2)=N\c2nnc(-c3cccc([N+](=O)[O-])c3)o2)c1` [Compound 2, (E)-2-(Benzo[d]oxazol-2-ylthio)-1-(3-nitrophenyl)-N-(5-(3-nitrophenyl)-1,3,4-oxadiazol-2-yl)ethan-1-imine]: it took 7.5 ± 1.2 µM to reach half-maximal inhibition (IC50).

Staying with this test, now noted: read-out: BuChE Inhibition IC50 ± SEM.
For the compound `O=[N+]([O-])c1cccc(/C(CSc2nc3ccccc3o2)=N\c2nnc(-c3ccc(Cl)cc3Cl)o2)c1` [Compound 3, (E)-2-(Benzo[d]oxazol-2-ylthio)-N-(5-(2,4-dichlorophenyl)-1,3,4-oxadiazol-2-yl)-1-(3-nitrophenyl)ethan-1-imine], the IC50 came out at 9.2 ± 1.9 µM. On the same count and under the same terms, then `O=[N+]([O-])c1cccc(/C(CSc2nc3ccccc3o2)=N\c2nnc(-c3ccc(Cl)cc3)o2)c1` [Compound 4, (E)-2-(Benzo[d]oxazol-2-ylthio)-N-(5-(4-chlorophenyl)-1,3,4-oxadiazol-2-yl)-1-(3-nitrophenyl)ethan-1-imine], with 11.9 ± 1.1 µM; and `CN(C)c1ccc(-c2nnc(/N=C(/CSc3nc4ccccc4o3)c3cccc([N+](=O)[O-])c3)o2)cc1` [Compound 5, (E)-4-(5-((2-(Benzo[d]oxazol-2-ylthio)-1-(3-nitrophenyl)ethylidene)amino)-1,3,4-oxadiazol-2-yl)-N,N-dimethylaniline], with 16.6 ± 2.5 µM; and `Cc1ccc(/C(CSc2nc3ccccc3o2)=N\c2nnc(-c3ccc(OCc4ccccc4)cc3)o2)cc1` [Compound 6, (E)-2-(Benzo[d]oxazol-2-ylthio)-N-(5-(4-(benzyloxy)phenyl)-1,3,4-oxadiazol-2-yl)-1-(p-tolyl)ethan-1-imine], with 28.6 ± 3.8 µM.

In the case of `Cc1ccc(/C(CSc2nc3ccccc3o2)=N\c2nnc(-c3cccc([N+](=O)[O-])c3)o2)cc1` [Compound 7, (E)-2-(Benzo[d]oxazol-2-ylthio)-N-(5-(3-nitrophenyl)-1,3,4-oxadiazol-2-yl)-1-(p-tolyl)ethan-1-imine], the concentration for half-maximal inhibition (IC50) was 15.8 ± 3.1 µM. On to `Cc1ccc(/C(CSc2nc3ccccc3o2)=N\c2nnc(-c3ccc(N(C)C)cc3)o2)cc1` [Compound 8, (E)-4-(5-((2-(Benzo[d]oxazol-2-ylthio)-1-(p-tolyl)ethylidene)amino)-1,3,4-oxadiazol-2-yl)-N,N-dimethylaniline], for which the half-maximal inhibitory concentration (IC50) is 24.6 ± 3.8 µM. Take `Cc1ccc(/C(CSc2nc3ccccc3o2)=N\c2nnc(-c3ccc(Cl)cc3Cl)o2)cc1` [Compound 9, (E)-2-(Benzo[d]oxazol-2-ylthio)-N-(5-(2,4-dichlorophenyl)-1,3,4-oxadiazol-2-yl)-1-(p-tolyl)ethan-1-imine]: the IC50 turned out to be 14.8 ± 2.7 µM.

On to `Cc1ccc(/C(CSc2nc3ccccc3o2)=N\c2nnc(-c3ccc([N+](=O)[O-])cc3)o2)cc1` [Compound 10, (E)-2-(Benzo[d]oxazol-2-ylthio)-N-(5-(4-nitrophenyl)-1,3,4-oxadiazol-2-yl)-1-(p-tolyl)ethan-1-imine], for which the IC50 was 18.5 ± 1.9 µM. With `Cc1ccc(/C(CSc2nc3ccccc3o2)=N\c2nnc(-c3ccc(Cl)cc3)o2)cc1` [Compound 11, (E)-2-(Benzo[d]oxazol-2-ylthio)-N-(5-(4-chlorophenyl)-1,3,4-oxadiazol-2-yl)-1-(p-tolyl)ethan-1-imine], the IC50 is 12.3 ± 1.5 µM.

For the compound `Cc1ccc(/C(CSc2nc3ccccc3o2)=N\c2nnc(-c3ccc(C=O)cc3)o2)cc1` [Compound 12, (E)-4-(5-((2-(Benzo[d]oxazol-2-ylthio)-1-(p-tolyl)ethylidene)amino)-1,3,4-oxadiazol-2-yl)benzaldehyde], the IC50 is 28.7 ± 3.9 µM.

On to `Cc1cccc(/C(CSc2nc3ccccc3o2)=N\c2nnc(-c3ccc(OCc4ccccc4)cc3)o2)c1` [Compound 13, (E)-2-(Benzo[d]oxazol-2-ylthio)-N-(5-(4-(benzyloxy)phenyl)-1,3,4-oxadiazol-2-yl)-1-(m-tolyl)ethan-1-imine], for which the half-maximal inhibitory concentration (IC50) was 31.5 ± 4.9 µM. Turning to `Cc1ccc(/C(CSc2nc3ccccc3o2)=N\c2nnc(-c3ccc4ccccc4c3)o2)cc1` [Compound 14, (E)-2-(Benzo[d]oxazol-2-ylthio)-N-(5-(naphthalen-2-yl)-1,3,4-oxadiazol-2-yl)-1-(p-tolyl)ethan-1-imine], the half-maximal inhibitory concentration (IC50) was 42.6 ± 6.1 µM. Consider `Clc1ccc(/C(CSc2nc3ccccc3o2)=N\c2nnc(-c3ccc(Cl)c(Cl)c3)o2)cc1Cl` [Compound 15, (E)-2-(Benzo[d]oxazol-2-ylthio)-1-(3,4-dichlorophenyl)-N-(5-(3,4-dichlorophenyl)-1,3,4-oxadiazol-2-yl)ethan-1-imine], for which the IC50 came out at 7.2 ± 2.3 µM. For `O=[N+]([O-])c1cccc(-c2nnc(/N=C(/CSc3nc4ccccc4o3)c3ccc(Cl)c(Cl)c3)o2)c1` [Compound 16, (E)-2-(Benzo[d]oxazol-2-ylthio)-1-(3,4-dichlorophenyl)-N-(5-(3-nitrophenyl)-1,3,4-oxadiazol-2-yl)ethan-1-imine], the concentration for half-maximal inhibition (IC50) is 7.6 ± 2.1 µM. For the compound `Clc1ccc(-c2nnc(/N=C(/CSc3nc4ccccc4o3)c3ccc(Cl)c(Cl)c3)o2)cc1` [Compound 17, (E)-2-(Benzo[d]oxazol-2-ylthio)-N-(5-(4-chlorophenyl)-1,3,4-oxadiazol-2-yl)-1-(3,4-dichlorophenyl)ethan-1-imine], the IC50 stood at 13.3 ± 3.2 µM. Same read-out and setting: the result for `CN(C)c1ccc(-c2nnc(/N=C(/CSc3nc4ccccc4o3)c3ccc(Cl)c(Cl)c3)o2)cc1` [Compound 18, (E)-4-(5-((2-(Benzo[d]oxazol-2-ylthio)-1-(3,4-dichlorophenyl)ethylidene)amino)-1,3,4-oxadiazol-2-yl)-N,N-dimethylaniline] reads 18.3 ± 3.2 µM; that for `O=[N+]([O-])c1ccc(-c2nnc(/N=C(/CSc3nc4ccccc4o3)c3ccc(Cl)c(Cl)c3)o2)cc1` [Compound 19, (E)-2-(Benzo[d]oxazol-2-ylthio)-1-(3,4-dichlorophenyl)-N-(5-(4-nitrophenyl)-1,3,4-oxadiazol-2-yl)ethan-1-imine], 9.8 ± 2.3 µM.
